Results published in patent US20050239656A1, “Pyridine compounds or salts thereof and herbicides containing the same” (priority 2002, published 2005).

Tests used:
barnyardgrass = test: Test Example 3: paddy pot test, application under submerged conditions; assay type: in vivo, Echinochloa crus-galli L.; details: submerged application at 0.5 leaf stage, visually observed 14 days after application, 0 = non-treated, 100 = complete kill
Description: (§1) Paddy field soil was put into a 1/1,000,000 ha pot, and seed of barnyardgrass and japanese bulrush were sown and slightly covered with soil. Then, the pot was left to stand still in a greenhouse in a state where the depth of flooding water was from 0.5 to 1 cm, and one day or two days later, tubers of japanese ribbon wapato were planted. Thereafter, the depth of flooding water was maintained at a level of from 3 to 4 cm, and when barnyardgrass and japanese bulrush reached a 0.5 leaf stage and japanese ribbon wapato reached a primary leaf stage, an aqueous diluted solution of a wettable powder or emulsifiable concentrate having the compound of the present invention formulated in accordance with a usual formulation method, was uniformly applied under submerged conditions by a pipette so that the dose of the active ingredient would be at a predetermined level. On the 14 days after the application of the herbicide, the growth of barnyard grass, japanese burlrush and japanese ribbon wapato was visually observed and on the 21st day after the application of the herbicide, the growth of rice was visually observed, and the herbicidal effects were evaluated by the growth-controlling degrees (%) ranging from 0 (equivalent to the non-treated plot) to 100 (complete kill), whereby the results shown in Table 5 were obtained.

japanese bulrush = test: as above; assay type: in vivo, Scirpus juncoides; details: submerged application at 0.5 leaf stage, visually observed 14 days after application, 0 = non-treated, 100 = complete kill
Description: as §1

japanese ribbon wapato = test: as above; assay type: in vivo, Sagittaria pygniaea; details: submerged application at primary leaf stage, visually observed 14 days after application, 0 = non-treated, 100 = complete kill
Description: as §1

rice (var. Nihonbare) = test: Test Example 3: paddy pot test, transplanted rice; assay type: in vivo, Oryza sativa L.; details: applied 4th day after transplantation, visually observed 21st day after application, 0 = non-treated, 100 = complete kill
Description: as §1, with “On the other hand, paddy field soil was put into a 1/1,000,000 ha pot and puddled and leveled, and the depth of flooding water was from 3 to 4 cm. Next day, rice (var. Nihonbare) of 2 leaf stage was transplanted in a depth of 3 cm. On the 4th day after the transplantation, the compound of the present invention was applied in the same manner as described above. On the 14 days” for “On the 14 days”

Row | SMILES | Growth controlling degree (%) Barnyardgrass (barnyardgrass; active ingredient 250 g/ha) [%] | Growth controlling degree (%) Japanese bulrush (japanese bulrush; active ingredient 250 g/ha) [%] | Growth controlling degree (%) Japanese ribbon wapato (japanese ribbon wapato; active ingredient 250 g/ha) [%] | Growth controlling degree (%) Rice (rice (var. Nihonbare); active ingredient 250 g/ha) [%] | Growth controlling degree (%) Barnyardgrass (barnyardgrass; active ingredient 500 g/ha) [%] | Growth controlling degree (%) Japanese bulrush (japanese bulrush; active ingredient 500 g/ha) [%] | Growth controlling degree (%) Japanese ribbon wapato (japanese ribbon wapato; active ingredient 500 g/ha) [%] | Growth controlling degree (%) Rice (rice (var. Nihonbare); active ingredient 500 g/ha) [%]
1 | CC(C)C(c1cnccc1C(F)(F)F)N(C)C(=O)C=Cc1cccs1 (stereo not shown) [I-173] | 90 | 95 | 30 | 0 | – | – | – | –
2 | CC(C)C(c1cccnc1)N(C)C(=O)Cc1ccccc1 (stereo not shown) [I-93] | – | – | – | – | 60 | 95 | 30 | 0
3 | Cc1ccccc1CC(=O)N(C)C(c1cnccc1Cl)C(C)C (stereo not shown) [I-83] | 98 | 98 | 20 | 10 | – | – | – | –
4 | CC(C)C(c1cnccc1C(F)(F)F)N(C)C(=O)C=C1CCCC1 (stereo not shown) [I-176] | 98 | 98 | 0 | 0 | – | – | – | –
5 | CC(C)C(c1cnccc1Br)N(C)C(=O)Cc1ccccc1 (racemic) [I-110] | 98 | 90 | 20 | 0 | – | – | – | –
6 | CC(C)C(c1cnccc1C(F)(F)F)N(C)C(=O)C=C1CCCCC1 (stereo not shown) [I-177] | 60 | 98 | 20 | 20 | – | – | – | –
7 | CC(C)C(c1cnccc1C(F)(F)F)N(C)C(=O)COc1ccc(Cl)cc1 (stereo not shown) [I-248] | 98 | 98 | 20 | 0 | – | – | – | –
8 | CC(C)C(c1cnccc1C(F)(F)F)N(C)S(=O)(=O)c1ccc(C(F)(F)F)cc1 (stereo not shown) [I-146] | 98 | 80 | 0 | 20 | – | – | – | –
9 | CC(C)C(c1cnccc1C(F)(F)F)N(C)C(=O)COc1cccc(Cl)c1 (stereo not shown) [I-247] | 100 | 95 | 0 | 0 | – | – | – | –
10 | CC(C)C(c1cnccc1Cl)N(C)C(=O)Cc1ccc(Cl)c(Cl)c1 (stereo not shown) [I-80] | 98 | 90 | 20 | 20 | – | – | – | –
11 | CC(C)C(c1cnccc1C(F)(F)F)N(C)C(=O)COc1c(F)c(F)c(F)c(F)c1F (stereo not shown) [I-252] | 95 | 98 | 0 | 0 | – | – | – | –
12 | CC(C)C(c1cnccc1Cl)N(C)C(=O)Cc1c(F)ccc(F)c1F (stereo not shown) [I-89] | 100 | 95 | 40 | 0 | – | – | – | –
13 | CC(C)C(c1cnccc1C(F)(F)F)N(C)C(=O)COc1ccc(Cl)cc1Cl (stereo not shown) [I-236] | 95 | 80 | 70 | 0 | – | – | – | –
14 | CC(C)C(NC(=O)Cc1ccc(C(F)(F)F)cc1)c1cnccc1C(F)(F)F (stereo not shown) [I-7] | – | – | – | – | 95 | 70 | 0 | 20
15 | CC(C)C(c1cnccc1C(F)(F)F)N(C)C(=O)Cc1ccc2ccccc2c1 (stereo not shown) [I-58] | – | – | – | – | 100 | 40 | 0 | 35
16 | COc1ccccc1CC(=O)N(C)C(c1cnccc1C(F)(F)F)C(C)C (stereo not shown) [I-35] | 100 | 95 | 70 | 0 | – | – | – | –
